Patent US20070264355A1, “BINARY COMPOSITIONS AND METHODS FOR STERILIZATION” (Binary, LLC, priority 2005, published 2007)
Entries after “also recorded” stand apart in the source; their conditions may differ.

What was measured:
Type in all cases: cell-based
[1] = test system: Bacillus subtilis (ATCC 19659) spores; assay: Microbicidal activity against Bacillus subtilis spores (suspension test, surviving CFU)
From the text: (§1) Each solution was used alone for the individual controls. Organism suspensions were used to achieve a final target concentration of 2-3×10^6 CFU per ml. For the binary system treatments, sodium hypochlorite solution and hydrogen peroxide solution, non-acidified or acidified, were sequentially added to the microorganisms. Acidified hydrogen peroxide solution was obtained by the addition of 1.0% v/v of 0.001 N hydrochloride solution. After each addition, the resulting mixture was allowed to remain in contact with the organisms for a set amount of time at room temperature (about 22° C.), as listed in the Tables 1 and 2. At the end of the treatment time, the mixtures were neutralized with 200 to 500 microliters of thiosulfate solution (2.4%) to quench the activity of sodium hypochlorite and then treated with 100 to 200 microliters of a 1% catalase solution, containing a minimum of 100 units/ul, to quench the hydrogen peroxide activity. If needed, an appropriate volume of sterile saline was added to bring the final volume of reaction mixture to 1.4 ml after neutralization. Serial dilution plate counts were performed from the contents of each vial in sterile saline and inoculated onto TSA for quantitative culture. Plates were then incubated at 37° C. and counts taken at 24 hours.
Suspensions of Bacillus subtilis (ATCC 19659) containing 100% spores, as confirmed by microscopy, were obtained by washing the spun-down cells with 50% ethanol to eliminate the vegetative form. Starting inoculum of approximately 1-3×10^6 CFU was used as in Example 1.
[…] The binary system was neutralized 30 minutes after addition of hydrogen peroxide using 2.4% thiosulfate and 1% catalase as described in Example 1.

[2] = test system: Staphylococcus aureus (ATCC 6538); assay: Microbicidal activity against Staphylococcus aureus (suspension test, surviving CFU)
Protocol: Bacterial suspensions, specifically Staphylococcus aureus (ATCC 6538) in this example, were prepared by the shake flask method to achieve late log to early stationary phase growth. Bacteria were grown 24 hours in trypticase soy broth (TSB) at 35° C. The cultures were centrifuged at 4,000 rpm for 10 minutes and the supernatants removed. The pellet was collected and washed twice with sterile 0.9% normal saline. The washed microorganisms were suspended and diluted with normal saline to a 3 McFarland standard, i.e., approximately 10^9 bacteria colony forming units (CFU) per ml. Actual colony counts are confirmed by serial dilutions (10^−1 to 10^−5 or 10^−6) plated on trypticase soy agar (TSA) and incubated overnight at 35° C. One hundred microliters of organisms from a stock of 10^7 CFU/ml were used to obtain an approximate final working target inoculum of 10^6 CFU. The microbicidal test is conducted in a vial containing 1.4 ml of final reaction mixture after neutralization.
as §1
After an additional 30 minutes, the binary system mixture was then neutralized using 2.4% thiosulfate followed by 1% catalase as described in the Methods Section.

[3] = test system: Escherichia coli (ATCC 25922); assay: Microbicidal activity against Escherichia coli (suspension test, surviving CFU); conditions: H2O2 88 mM 15 min; inoculum 1630000 CFU
From the text: as §1, with “hours. […]” for “hours.”

[4] = test system: Staphylococcus aureus; assay: Microbicidal activity of commonly used antiseptics against Staphylococcus aureus; conditions: inoculum 1475000 CFU
Protocol: (§2) The performance of commonly used antiseptics was tested against Bacillus subtilis and Staphylococcus aureus, following the general procedure of Example 1, to assess the improvement provided by the binary system over these compounds.
[…] Chlorhexidine and IPA were neutralized with 500 microliters of a solution containing 3% Saponin, 3% Tween-80, 0.3% lecithin, and 0.1% histidine. Povidone Iodine was neutralized with 500 microliters of thiosulfate solution (2.4%).

[5] = test system: Bacillus subtilis spores; assay: Microbicidal activity of commonly used antiseptics against Bacillus subtilis spores
Protocol: as §2
After 60 minutes of exposure to the organisms, the individual antiseptics, indicated in Table 15 and Table 16, were neutralized using the corresponding neutralizing solutions prepared as listed below in Materials. Chlorhexidine and IPA were neutralized with 500 microliters of a solution containing 3% Saponin, 3% Tween-80, 0.3% lecithin, and 0.1% histidine. Povidone Iodine was neutralized with 500 microliters of thiosulfate solution (2.4%).

[6] = H2O2 35.25 mM 30 min, inoculum 1120000 CFU
[7] = H2O2 88 mM 60 min, inoculum 1865000 CFU
[8] = H2O2 294 mM 60 min, inoculum 1865000 CFU
[9] = H2O2 882 mM 60 min, inoculum 1865000 CFU
[10] = H2O2 2940 mM 60 min, inoculum 1865000 CFU
[11] = H2O2 8821 mM 60 min, inoculum 1865000 CFU
[12] = H2O2 0.35 mM 30 min, inoculum 2530000 CFU
[13] = H2O2 88 mM 5 min, inoculum 1600000 CFU
[14] = H2O2 88 mM 15 min, inoculum 1600000 CFU
[15] = H2O2 88 mM 30 min, inoculum 1600000 CFU
[16] = H2O2 294 mM 5 min, inoculum 1600000 CFU
[17] = H2O2 294 mM 15 min, inoculum 1600000 CFU
[18] = H2O2 294 mM 30 min, inoculum 1600000 CFU
[19] = H2O2 882 mM 5 min, inoculum 1600000 CFU
[20] = H2O2 882 mM 15 min, inoculum 1600000 CFU
[21] = H2O2 882 mM 30 min, inoculum 1600000 CFU
[22] = H2O2 2940 mM 5 min, inoculum 1600000 CFU
[23] = H2O2 2940 mM 15 min, inoculum 1600000 CFU
[24] = H2O2 2940 mM 30 min, inoculum 1600000 CFU
[25] = H2O2 8821 mM 5 min, inoculum 1600000 CFU
[26] = H2O2 8821 mM 15 min, inoculum 1600000 CFU
[27] = H2O2 8821 mM 30 min, inoculum 1600000 CFU
[28] = H2O2/H+ 35.25 mM 30 min, inoculum 1120000 CFU
[29] = H2O2/H+ 0.35 mM 30 min, inoculum 2530000 CFU
[30] = IPA 0.07% 60 min, inoculum 1865000 CFU
[31] = IPA 0.70% 60 min, inoculum 1865000 CFU
[32] = IPA 7% 60 min, inoculum 1865000 CFU
[33] = IPA 70% 60 min, inoculum 1865000 CFU
[34] = PVI 10.00% 60 min, inoculum 1120000 CFU

OO [H2O2, hydrogen peroxide]
Log 10 (CFU + 1) Survivors [1, 6]: 6.1
Log Reduction [1, 6]: −0.1
Total Viability (CFU) [1, 6]: 1358000 CFU
Log 10 (CFU + 1) Survivors [1, 7]: 6.3
Log Reduction [1, 7]: 0.0
Total Viability (CFU) [1, 7]: 1974000 CFU
Log 10 (CFU + 1) Survivors [1, 8]: 6.2
Log Reduction [1, 8]: 0.1
Total Viability (CFU) [1, 8]: 1484000 CFU
Log 10 (CFU + 1) Survivors [1, 9]: 5.3
Log Reduction [1, 9]: 1.0
Total Viability (CFU) [1, 9]: 200200 CFU
Log 10 (CFU + 1) Survivors [1, 10]: 2.8
Log Reduction [1, 10]: 3.5
Total Viability (CFU) [1, 10]: 588 CFU
Log 10 (CFU + 1) Survivors [1, 11]: 0.0
Log Reduction [1, 11]: 6.3
Total Viability (CFU) [1, 11]: 0 CFU
microbicidal activity (kill of inoculum) ([1]; hydrogen peroxide 8821 mM, within 60 minutes, 6.3 log10 CFU inoculum): complete kill
microbicidal activity (kill of inoculum) ([1]; hydrogen peroxide 294 to 88 mM, within 60 minutes): no microbicidal activity
microbicidal activity (kill of inoculum) ([1]; hydrogen peroxide 2940 and 882 mM, 60 minutes): partial kill
Log 10 (CFU + 1) Survivors [2, 12]: 6.2
Log Reduction [2, 12]: 0.2
Total Viability (CFU) [2, 12]: 1764000 CFU
Log 10 (CFU + 1) Survivors [2, 13]: 6.2
Log Reduction [2, 13]: 0.0
Total Viability (CFU) [2, 13]: 1694000 CFU
Log 10 (CFU + 1) Survivors [2, 14]: 6.3
Log Reduction [2, 14]: −0.1
Total Viability (CFU) [2, 14]: 2044000 CFU
Log 10 (CFU + 1) Survivors [2, 15]: 6.3
Log Reduction [2, 15]: −0.1
Total Viability (CFU) [2, 15]: 1792000 CFU
Log 10 (CFU + 1) Survivors [2, 16]: 6.1
Log Reduction [2, 16]: 0.1
Total Viability (CFU) [2, 16]: 1288000 CFU
Log 10 (CFU + 1) Survivors [2, 17]: 6.1
Log Reduction [2, 17]: 0.1
Total Viability (CFU) [2, 17]: 1190000 CFU
Log 10 (CFU + 1) Survivors [2, 18]: 1.3
Log Reduction [2, 18]: 4.9
Total Viability (CFU) [2, 18]: 21 CFU
Log 10 (CFU + 1) Survivors [2, 19]: 4.1
Log Reduction [2, 19]: 2.1
Total Viability (CFU) [2, 19]: 12040 CFU
Log 10 (CFU + 1) Survivors [2, 20]: 0.0
Log Reduction [2, 20]: 6.2
Total Viability (CFU) [2, 20]: 0 CFU
Log 10 (CFU + 1) Survivors [2, 21]: 0.0
Log Reduction [2, 21]: 6.2
Total Viability (CFU) [2, 21]: 0 CFU
Log 10 (CFU + 1) Survivors [2, 22]: 0.0
Log Reduction [2, 22]: 6.2
Total Viability (CFU) [2, 22]: 0 CFU
Log 10 (CFU + 1) Survivors [2, 23]: 0.0
Log Reduction [2, 23]: 6.2
Total Viability (CFU) [2, 23]: 0 CFU
Log 10 (CFU + 1) Survivors [2, 24]: 0.0
Log Reduction [2, 24]: 6.2
Total Viability (CFU) [2, 24]: 0 CFU
Log 10 (CFU + 1) Survivors [2, 25]: 0.0
Log Reduction [2, 25]: 6.2
Total Viability (CFU) [2, 25]: 0 CFU
Log 10 (CFU + 1) Survivors [2, 26]: 0.0
Log Reduction [2, 26]: 6.2
Total Viability (CFU) [2, 26]: 0 CFU
Log 10 (CFU + 1) Survivors [2, 27]: 0.0
Log Reduction [2, 27]: 6.2
Total Viability (CFU) [2, 27]: 0 CFU
microbicidal activity (kill of inoculum) ([2]; highest concentration of hydrogen peroxide used in the binary system, tested alone): completely ineffective and produced no kill
microbicidal activity (kill of inoculum) ([2]; hydrogen peroxide 88 mM, within 30 minutes): no microbicidal activity; also recorded: not microbicidal
microbicidal activity (kill of inoculum) ([2]; hydrogen peroxide 8821 and 2940 mM, within 5 minutes, 6.2 log10 CFU inoculum): complete kill
microbicidal activity (kill of inoculum) ([2]; hydrogen peroxide intermediate concentrations): partial kill
Log 10 (CFU + 1) Survivors [3]: 5.8
Log Reduction [3]: 0.4
Total Viability (CFU) [3]: 588000 CFU

OO [H2O2/H+, hydrogen peroxide]
Log 10 (CFU + 1) Survivors [1, 28]: 6.2
Log Reduction [1, 28]: −0.2
Total Viability (CFU) [1, 28]: 1624000 CFU
Log 10 (CFU + 1) Survivors [2, 29]: 6.2
Log Reduction [2, 29]: 0.2
Total Viability (CFU) [2, 29]: 1708000 CFU

CC(C)O [IPA, Isopropyl Alcohol]
Log 10 (CFU + 1) Survivors ([4]; IPA 0.07% 15 min): 6.3
Log Reduction ([4]; IPA 0.07% 15 min): −0.1
Total Viability (CFU) ([4]; IPA 0.07% 15 min): 1932000 CFU
Log 10 (CFU + 1) Survivors ([4]; IPA 0.70% 15 min): 6.3
Log Reduction ([4]; IPA 0.70% 15 min): −0.1
Total Viability (CFU) ([4]; IPA 0.70% 15 min): 1988000 CFU
Log 10 (CFU + 1) Survivors ([4]; IPA 7% 15 min): 6.3
Log Reduction ([4]; IPA 7% 15 min): −0.1
Total Viability (CFU) ([4]; IPA 7% 15 min): 1834000 CFU
Log 10 (CFU + 1) Survivors ([4]; IPA 70% 15 min): 0.0
Log Reduction ([4]; IPA 70% 15 min): 6.2
Total Viability (CFU) ([4]; IPA 70% 15 min): 0 CFU
Log 10 (CFU + 1) Survivors [5, 30]: 6.4
Log Reduction [5, 30]: −0.1
Total Viability (CFU) [5, 30]: 2422000 CFU
Log 10 (CFU + 1) Survivors [5, 31]: 6.3
Log Reduction [5, 31]: −0.1
Total Viability (CFU) [5, 31]: 2170000 CFU
Log 10 (CFU + 1) Survivors [5, 32]: 6.4
Log Reduction [5, 32]: −0.1
Total Viability (CFU) [5, 32]: 2352000 CFU
Log 10 (CFU + 1) Survivors [5, 33]: 6.3
Log Reduction [5, 33]: 0.0
Total Viability (CFU) [5, 33]: 2044000 CFU
activity against B. subtilis spores ([5]; any concentration tested, 60 min): did not demonstrate activity

Povidone Iodine [PVI]
Log 10 (CFU + 1) Survivors ([4]; PVI 10.00% 15 min): 0.0
Log Reduction ([4]; PVI 10.00% 15 min): 6.2
Total Viability (CFU) ([4]; PVI 10.00% 15 min): 0 CFU
Log 10 (CFU + 1) Survivors [5, 34]: 5.3
Log Reduction [5, 34]: 0.8
Total Viability (CFU) [5, 34]: 189000 CFU
